Reference: the supplement of paper PMC10307832

Experiments:
Experiment in all cases: relative viability (nuclei count vs DMSO), 5 days (fraction); higher = more cells survive
[1] = compound: C[C@H]([C@@H](C(=O)N)NC(=O)[C@@H]1CSSC[C@@H](C(=O)N[C@H](C(=O)N[C@@H](C(=O)N[C@H](C(=O)N1)CCCCN)CC2=CNC3=CC=CC=C32)CC4=CC=C(C=C4)O)NC(=O)[C@@H](CC5=CC=CC=C5)N)O [CAP-232] + CS(=O)(=O)CCNCc1ccc(-c2ccc3ncnc(Nc4ccc(OCc5cccc(F)c5)c(Cl)c4)c3c2)o1 [Lapatinib] (partner 2 µM)
Summary of the method: (§1)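 Relative viability equals treated-well nuclei counts divided by vehicle-well nuclei counts. Counts came from 4× images of lung cancer cell lines grown in 1536-well plates for 5 days after pin-tool dosing on the day after seeding. Dosing used one drug alone or a fixed anchor-drug dose plus five library-drug doses (not always all listed) in √10 steps, and values are medians of duplicate plates.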

[2] = compound: C[C@H]([C@@H](C(=O)N)NC(=O)[C@@H]1CSSC[C@@H](C(=O)N[C@H](C(=O)N[C@@H](C(=O)N[C@H](C(=O)N1)CCCCN)CC2=CNC3=CC=CC=C32)CC4=CC=C(C=C4)O)NC(=O)[C@@H](CC5=CC=CC=C5)N)O [CAP-232] + Cc1nc(NC(=O)N2CCC[C@H]2C(N)=O)sc1-c1ccnc(C(C)(C)C(F)(F)F)c1 [Alpelisib] (partner 2 µM)
Summary of the method: as §1

[3] = compound: C[C@H]([C@@H](C(=O)N)NC(=O)[C@@H]1CSSC[C@@H](C(=O)N[C@H](C(=O)N[C@@H](C(=O)N[C@H](C(=O)N1)CCCCN)CC2=CNC3=CC=CC=C32)CC4=CC=C(C=C4)O)NC(=O)[C@@H](CC5=CC=CC=C5)N)O [CAP-232] + Cc1nc(Nc2ncc(C(=O)Nc3c(C)cccc3Cl)s2)cc(N2CCN(CCO)CC2)n1 [Dasatinib] (partner 0.075 µM)
Summary of the method: as §1

[4] = compound: C[C@H]([C@@H](C(=O)N)NC(=O)[C@@H]1CSSC[C@@H](C(=O)N[C@H](C(=O)N[C@@H](C(=O)N[C@H](C(=O)N1)CCCCN)CC2=CNC3=CC=CC=C32)CC4=CC=C(C=C4)O)NC(=O)[C@@H](CC5=CC=CC=C5)N)O [CAP-232] + NC(=O)Nc1cc(-c2cccc(F)c2)sc1C(=O)N[C@H]1CCCNC1 [AZD7762] (partner 0.2 µM)
Summary of the method: as §1

[5] = compound: C[C@H]([C@@H](C(=O)N)NC(=O)[C@@H]1CSSC[C@@H](C(=O)N[C@H](C(=O)N[C@@H](C(=O)N[C@H](C(=O)N1)CCCCN)CC2=CNC3=CC=CC=C32)CC4=CC=C(C=C4)O)NC(=O)[C@@H](CC5=CC=CC=C5)N)O [CAP-232] + N=C(N)NC(=N)NCCc1ccccc1 [Phenformin] (partner 250 µM)
Summary of the method: as §1

| Cell Line | relative viability ([1]; first compound 0.4 µM) | relative viability ([1]; first compound 1.265 µM) | relative viability ([1]; first compound 4 µM) | relative viability ([1]; first compound 12.65 µM) | relative viability ([2]; first compound 0.4 µM) | relative viability ([2]; first compound 1.265 µM) | relative viability ([2]; first compound 4 µM) | relative viability ([2]; first compound 12.65 µM) | relative viability ([3]; first compound 0.4 µM) | relative viability ([3]; first compound 1.265 µM) | relative viability ([3]; first compound 4 µM) | relative viability ([3]; first compound 12.65 µM) | relative viability ([4]; first compound 0.4 µM) | relative viability ([4]; first compound 1.265 µM) | relative viability ([4]; first compound 4 µM) | relative viability ([4]; first compound 12.65 µM) | relative viability ([5]; first compound 0.4 µM) | relative viability ([5]; first compound 1.265 µM) | relative viability ([5]; first compound 4 µM) | relative viability ([5]; first compound 12.65 µM) |
| --- | --- | --- | --- | --- | --- | --- | --- | --- | --- | --- | --- | --- | --- | --- | --- | --- | --- | --- | --- | --- |
| HCC-78 | 0.809 | 0.338 | 0.878 | 0.695 | 0.317 | 0.371 | 0.312 | 0.819 | 0.431 | 0.392 | 0.523 | 0.363 | 0.747 | 0.612 | 0.591 | 0.713 | 0.859 | 0.806 | 0.746 | 0.54 |
| IA-LM | 0.79 | 0.705 | 0.928 | 0.292 | 0.881 | 0.742 | 0.629 | 0.296 | – | – | – | – | – | – | – | – | – | – | – | – |
| LCLC-103H | – | – | – | – | 0.948 | 0.921 | 0.972 | 0.898 | 0.528 | 0.455 | 0.499 | 0.403 | 0.89 | 0.792 | 0.891 | 0.747 | 0.368 | 0.342 | 0.315 | 0.325 |
| NCI-H441 | – | – | – | – | 0.757 | 0.912 | 0.788 | 0.843 | 0.653 | 0.857 | 0.7 | 0.543 | 1.03 | 1.16 | 1.22 | 0.922 | 0.82 | 0.897 | 0.982 | 0.864 |
| NCI-H520 | 0.961 | 0.858 | 0.965 | 0.684 | 0.945 | 0.93 | 1.08 | 0.568 | 0.189 | 0.193 | 0.251 | 0.201 | – | – | – | – | 0.529 | 0.52 | 0.619 | 0.461 |
| NCI-H522 | – | – | – | – | – | – | – | – | 1.1 | 0.73 | 0.914 | 0.735 | 0.876 | 1.08 | 0.926 | 1.04 | 0.7 | 0.72 | 0.592 | 0.69 |
| NCI-H661 | 0.496 | 0.592 | 0.465 | 0.344 | 0.594 | 0.382 | 0.913 | 0.596 | 0.971 | 0.663 | 0.96 | 0.648 | – | – | – | – | 0.262 | 0.268 | 0.278 | 0.227 |
| NCI-H1563 | 1.09 | 0.862 | 1.07 | 0.635 | 0.92 | 0.955 | 0.908 | 0.626 | 0.449 | 0.448 | 0.477 | 0.432 | – | – | – | – | 0.698 | 0.643 | 0.598 | 0.37 |
| NCI-H1650 | 0.737 | 0.788 | 0.966 | 0.214 | – | – | – | – | 0.344 | 0.27 | 0.282 | 0.231 | – | – | – | – | 0.479 | 0.335 | 0.424 | 0.153 |
| NCI-H1703 | 1.44 | 1.01 | 1.21 | 0.882 | 0.34 | 0.378 | 0.344 | 0.351 | – | – | – | – | 0.124 | – | 0.143 | 0.146 | – | – | – | – |
